Results taken from article PMC9919730, “A Versatile Continuous Fluorometric Enzymatic Assay for Targeting Nicotinate Phosphoribosyltransferase” (Molecules, 2023).
“Also recorded” adds a separate entry of the source. Where two headings read alike, the source gives them in different places. One block for each molecule: values may come before it.

Tests used:
OVCAR-5 cells [1] = assay: Cell viability, sulforhodamine B assay, with or without FK866; format: cell-based; conditions: for Sensitization of cells to FK866 (cell viability in combination): 200 µM compound with FK866 0 to 100 nM; for Combination index (CI): CompuSyn; for viability at 200 µM: Homo sapiens, OVCAR-5, 200 µM compound with 3 nM FK866, 72 h
Experimental: The OVCAR-5 cell line was obtained from the NCI-60 panel. Cells were seeded in 96-well plates (3 × 10^3 cells/well) and were treated with the selected compounds at a 200 µM final concentration or with 0.2% DMSO the day after, in combination with increasing concentrations of FK866, ranging from 0 to 100 nM. Treated cells were incubated at 37 °C and 5% CO2 for 72 h. At the end of the treatment, trichloroacetic acid (TCA) (10% final concentration) was added to each well. After 20 min at 4 °C, the wells were washed 4 times with tap water to remove TCA, and they were let to dry. Cell viability was evaluated with the sulforhodamine B assay, as previously described.

OVCAR-5 cells [2] = assay: Intracellular NAD+ levels measurement (cycling assay); format: cell-based; conditions: for Effect on NAD+ levels combined with FK866: 200 µM compound with 3 nM FK866, 24 h; for NAD levels: 200 µM compound with 3 nM FK866, after 72 h of incubation as printed
Experimental: The compounds were prepared as described above. OVCAR-5 cells were seeded in a 12-well plate (1 × 10^5/well). The day after, cells were treated with combinations of each selected compound (200 µM, final concentration) and FK866 (3 nM, final concentration) and were incubated at 37 °C and 5% CO2. […] Cell lysates were subsequently collected, transferred to new tubes, and diluted in 100 mM Na2HPO4 at pH 8. To determine the amount of NAD^+, we utilized a sensitive cyclic assay that takes advantage of the enzymatic activity of ADH [23]. Briefly, 0.1 mL of the cycling reagent (2% (v/v) ethanol, 100 μg/mL ADH, 20 μM resazurin, 5 μg/mL diaphorase, 10 μM FMN, 10 mM nicotinamide, and 100 mM sodium phosphate, pH 8.0) were added to each well, containing 0.1 mL of each diluted sample. The increase in resorufin fluorescence (544 nm excitation, 590 nm emission) was measured every min over a 2 h period using a fluorescence plate reader (Fluostar Optima, BMG Labtechnologies GmbH, Offenburg, Germany). A NAD^+ standard curve was always run in parallel in each assay.

human recombinant NAPRT [3] = target: T1, human recombinant NAPRT (Homo sapiens, UniProt Q6XQN6); assay: Continuous coupled fluorometric NADH assay of NAPRT activity; conditions: for Inhibitory activity against NAPRT (in words): screening at 0.5 mM
T1 sequence (Q6XQN6 1-538): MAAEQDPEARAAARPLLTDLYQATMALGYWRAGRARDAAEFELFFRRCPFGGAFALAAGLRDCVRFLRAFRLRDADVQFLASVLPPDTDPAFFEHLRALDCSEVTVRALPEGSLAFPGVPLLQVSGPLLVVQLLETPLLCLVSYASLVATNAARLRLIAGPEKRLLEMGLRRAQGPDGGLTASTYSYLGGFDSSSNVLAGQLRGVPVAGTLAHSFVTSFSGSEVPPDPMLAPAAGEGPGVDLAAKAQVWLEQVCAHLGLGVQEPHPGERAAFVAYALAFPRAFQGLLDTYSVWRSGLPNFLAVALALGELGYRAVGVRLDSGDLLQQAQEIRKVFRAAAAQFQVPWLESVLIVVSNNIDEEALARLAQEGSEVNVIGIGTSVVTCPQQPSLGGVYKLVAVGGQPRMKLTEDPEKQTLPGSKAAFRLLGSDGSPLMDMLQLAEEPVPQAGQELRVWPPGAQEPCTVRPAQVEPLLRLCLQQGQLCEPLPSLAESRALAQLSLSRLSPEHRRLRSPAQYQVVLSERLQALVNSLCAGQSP
Experimental: NADH fluorescence was monitored continuously at 37 °C for 30 min, using a 96-well plate in a Sinergy HT microplate reader (Bio-Tek, Winooski, VT, USA) set at excitation and emission wavelengths of 340 nm and 460 nm, respectively. The slope of the linear fit of fluorescence versus time was used to calculate the NAPRT activity by referring to an NADH standard curve, obtained by plotting the fluorescence of a known amount of NADH versus the nucleotide concentrations. […] These mixtures were optimized to make NadD the rate-limiting enzyme of the ancillary system, i.e., concentrations of the enzyme NadD and the NAMN substrate were chosen to guarantee a linear time course of the fluorescence increase up to 30 min.
The analyzed compounds were dissolved in 100% v/v DMSO. Few compounds were dissolved in water. The compounds were tested at a 0.5 mM concentration. […] The screening was started by using the NADH assay. […] The fluorescence increase was monitored continuously, which allowed us to easily estimate the quality of data and to identify potential artifacts (e.g., arising from compounds precipitation). […] One inhibitor control for each tested compound (compound and no NAPRT), as well as four positive controls (NAPRT and no compound) and four negative controls (no NAPRT and no compound) were included in every reaction plate. The percentage inhibition was calculated relative to the controls as follows: % inhibition=(Si−Ci)/(µp−µn)×100 where Si represents the signal in the presence of the compound; Ci is the signal of the inhibitor control; and µp and µn are the mean values of the signals of the positive and negative controls, respectively.
The IC50 value was determined by plotting the rates versus inhibitor concentration and fitting to the equation: Vi = V0/(1 + [I]/IC50) using GraphPad Prism 7. V0 and Vi represent initial rates in the absence and presence of the inhibitor at concentration [I], respectively.
Ki values were calculated from the straight line deriving from the replotting of the slopes of the reciprocal plot against the concentrations of the inhibitor (secondary plot). In particular, the straight line intersects the x-axis at [I] = −Ki [28].

human recombinant NAPRT [4] = target: T1, human recombinant NAPRT; assay: Resazurin/diaphorase-coupled assay of NAPRT activity; format: biochemical; design: inferred from purification on a HisTrap IMAC column with imidazole elution; made in house; host or cells: E. coli BL21 (D3); conditions: 0.5 mM compound; 0.1 mM NA, 0.4 mM PRPP; resazurin/diaphorase-coupled assay (optical interference at NADH wavelength)
Experimental: The NAPRT concentration was 0.004 × 10^−3 U/mL (2 nM). […] The increase in fluorescence due to resorufin formation in the assay was monitored continuously for 30 min, at 590 nm, after excitation at 530 nm, using a 96-well plate in the Sinergy HT microplate reader at 37 °C. […] To determine the NAPRT activity, the first derivative of the recorded fluorescence curve was calculated, and the slope of the corresponding curve was referred to a standard curve obtained by plotting the fluorescence rate recorded in assay mixtures containing known amounts of NAD^+ in the absence of NAPRT, NadD, and NadE versus the dinucleotide concentrations.
The analyzed compounds were dissolved in 100% v/v DMSO. Few compounds were dissolved in water. The compounds were tested at a 0.5 mM concentration. […] The screening was started by using the NADH assay. […] One inhibitor control for each tested compound (compound and no NAPRT), as well as four positive controls (NAPRT and no compound) and four negative controls (no NAPRT and no compound) were included in every reaction plate. The percentage inhibition was calculated relative to the controls as follows: % inhibition=(Si−Ci)/(µp−µn)×100 where Si represents the signal in the presence of the compound; Ci is the signal of the inhibitor control; and µp and µn are the mean values of the signals of the positive and negative controls, respectively.

human recombinant NAPRT [5] = target: T1, human recombinant NAPRT; assay: HPLC assay of NAPRT activity; format: biochemical; design: inferred from purification on a HisTrap IMAC column with imidazole elution; made in house; host or cells: E. coli BL21 (D3); conditions: 0.5 mM compound; 0.1 mM NA, 0.4 mM PRPP; HPLC assay (interference with both fluorometric assays)
Experimental: The amount of enzyme was optimized to provide substrate consumption below 20% of the initial concentration after 10 min of incubation at 37 °C. In addition, withdrawals from the reaction mixture at 5 and 10 min were always performed to ensure a linear time frame. The reaction was stopped by acidification with 0.6 M HClO4. After 10 min on ice, samples were clarified by centrifugation for 2 min at 13,000× g. The supernatants were neutralized with 0.8 M K2CO3, frozen at −20 °C for about 20 min, centrifuged at 13,000× g for 5 min, and injected onto a Supelcosil LC-18-S column (5 µm; 250 × 4.6 mm) thermostatted at 8 °C. […] The elution was monitored at 260 nm (Shimadzu SPD-M20A), and the formed NAMN was quantified by referring to an appropriate standard.
The analyzed compounds were dissolved in 100% v/v DMSO. […] The fluorescence increase was monitored continuously, which allowed us to easily estimate the quality of data and to identify potential artifacts (e.g., arising from compounds precipitation). […] The percentage inhibition was calculated relative to the controls as follows: % inhibition=(Si−Ci)/(µp−µn)×100 where Si represents the signal in the presence of the compound; Ci is the signal of the inhibitor control; and µp and µn are the mean values of the signals of the positive and negative controls, respectively.

[6] = substrate: O=C(O)c1cccnc1; assay: purified protein, by the assay type; conditions: other: kinetics in the absence of the inhibitor; 0.4 mM PRPP; pH 7.5; 37.0 °C
[7] = FK866 dose 3 nM with 200 µM compound
[8] = FK866 dose 10 nM with 200 µM compound
[9] = FK866 dose 30 nM with 200 µM compound
[10] = FK866 dose 100 nM with 200 µM compound
[11] = 0.5 mM compound, 0.1 mM NA, 0.4 mM PRPP, NADH assay
[12] = towards NA, NA 10 to 50 µM at 0.4 mM PRPP, NADH assay

- IC50 (human recombinant NAPRT [3]): 609 ± 69 µM
- Ki (human recombinant NAPRT [3]): 348 ± 36 µM
- inhibition at 500 µM (human recombinant NAPRT [3]; [11]): 38%
- Inhibition Mechanism (human recombinant NAPRT [3]; [12]): mixed
Molecule: Nc1ncccc1C(=O)O [Compound 2, 2-aminonicotinic acid]
- Sensitization of cells to FK866 (cell viability in combination) (OVCAR-5 cells [1]; 72 h): did not significantly sensitize cells to FK866 toxicity

- IC50 (human recombinant NAPRT [3]): 351 ± 38 µM
- Ki (human recombinant NAPRT [3]): 149 ± 14 µM
- inhibition at 500 µM (human recombinant NAPRT [3]; [11]): 57%
- Inhibition Mechanism (human recombinant NAPRT [3]; [12]): non-competitive
Molecule: O=C(O)c1cccnc1F [Compound 3, 2-fluoronicotinic acid]
- Sensitization of cells to FK866 (cell viability in combination) (OVCAR-5 cells [1]; 72 h): did not significantly sensitize cells to FK866 toxicity

- inhibition at 500 µM (human recombinant NAPRT [3]; [11]): 9%
Molecule: O=C(O)c1cccnc1C(=O)O [Compound 7, 2,3-pyridine dicarboxylic acid]

- inhibition at 500 µM (human recombinant NAPRT [3]; [11]): 0%
Molecule: NC(=O)c1cnccn1 [Compound 12, pyrazinamide]

- inhibition at 500 µM (human recombinant NAPRT [3]; [11]): 0%
Molecule: O=C(O)Cc1cnccn1 [Compound 13, 2-pyrazine acetic acid]

- inhibition at 500 µM (human recombinant NAPRT [3]; [11]): 0%
Molecule: Cc1cnc(C(=O)O)c[n+]1[O-] [Compound 14, Acipimox]

- IC50 (human recombinant NAPRT [3]): 1370 ± 74 µM
- Ki (human recombinant NAPRT [3]): 513 ± 13 µM
- inhibition at 500 µM (human recombinant NAPRT [3]; [11]): 30%
- Inhibition Mechanism (human recombinant NAPRT [3]; [12]): mixed inhibitor
Molecule: O=C(O)c1cccnn1 [Compound 15, 3-pyridazine carboxylic acid]

- inhibition at 500 µM (human recombinant NAPRT [3]; [11]): 11%
Molecule: CC(=O)Oc1ccccc1C(=O)O [Compound 18, acetyl salicylic acid]

- inhibition at 500 µM (human recombinant NAPRT [5]): 5%
Molecule: Nc1c(O)cccc1C(=O)O [Compound 21, 3-hydroxy anthranilic acid]

- inhibition at 500 µM (human recombinant NAPRT [5]): 5%
Molecule: O=C(O)c1ccccc1N=Nc1ccc(O)cc1 [Compound 22, 2-(4-hydroxyphenylazo) benzoic acid]

- inhibition at 500 µM (human recombinant NAPRT [3]; [11]): 6%
Molecule: O=C(O)c1ccccn1 [Compound 25, 2-picolinic acid]

- inhibition at 500 µM (human recombinant NAPRT [3]; [11]): ≤ 20%
Molecule: O=C(O)c1ncccn1 [Compound 29, 2-pyrimidine carboxylic acid]

- inhibition at 500 µM (human recombinant NAPRT [3]; [11]): 0%
- Inhibitory activity against NAPRT (in words) (human recombinant NAPRT [3]): very poor inhibitors
Molecule: Oc1ncccn1 [Compound 32, 2-hydroxypyrimidine]

- inhibition at 500 µM (human recombinant NAPRT [3]; [11]): 0%
- Inhibitory activity against NAPRT (in words) (human recombinant NAPRT [3]): inactive
Molecule: NC1CCC(C(=O)O)CC1 (stereo not drawn) [Compound 35, 4-aminocyclohexane carboxylic acid]

- inhibition at 500 µM (human recombinant NAPRT [3]; [11]): 0%
- Inhibitory activity against NAPRT (in words) (human recombinant NAPRT [3]): inactive
Molecule: CC(=O)Nc1ccccc1 [Compound 37, acetanilide]

Continued, molecule first:

Molecule: O=C(O)c1cccnc1O [Compound 1, 2-hydroxynicotinic acid]
- Sensitization of cells to FK866 (cell viability in combination) (OVCAR-5 cells [1]; 72 h): reduced cell viability when combined with FK866
- Sensitization of cells to FK866 (cell viability in combination) (OVCAR-5 cells [1]; 72 h, listed as 2-hydroxynicotinic acid): sensitize OVCAR-5 cells to the NAMPT inhibitor FK866; also recorded: effective in sensitizing tumor cells to NAMPT inhibitors
- Combination index (CI) (OVCAR-5 cells [1]; [7]): 0.5117
- Combination index (CI) (OVCAR-5 cells [1]; [8]): 0.3255
- Combination index (CI) (OVCAR-5 cells [1]; [9]): 0.339
- Combination index (CI) (OVCAR-5 cells [1]; [10]): 0.3592
- viability at 200 µM (OVCAR-5 cells [1]): ~75%
- Effect on NAD+ levels combined with FK866 (OVCAR-5 cells [2]): most effective
- NAD levels (OVCAR-5 cells [2]): about 15%

Molecule: O=C(O)c1ccc(Cl)nc1 [Compound 4, 6-chloronicotinic acid]
- IC50 (human recombinant NAPRT [3]): 1260 ± 115 µM
- Inhibition Mechanism (human recombinant NAPRT [3]): 845 ± 69 non-competitive
- Ki (human recombinant NAPRT [3]): 845 ± 69 µM
- inhibition at 500 µM (human recombinant NAPRT [3]): 44%

Molecule: O=C(O)c1ccc(O)nc1 [Compound 8, 6-hydroxynicotinic acid]
- inhibition at 500 µM (human recombinant NAPRT [3]): 0%

Molecule: O=C(O)c1cnccn1 [Compound 9, pyrazine-2-carboxylic acid]
- Sensitization of cells to FK866 (cell viability in combination) (OVCAR-5 cells [1]; 72 h): reduced cell viability when combined with FK866
- Sensitization of cells to FK866 (cell viability in combination) (OVCAR-5 cells [1]; 72 h, listed as pyrazine-2-carboxylic acid): sensitize OVCAR-5 cells to the NAMPT inhibitor FK866
- Combination index (CI) (OVCAR-5 cells [1]; [7]): 0.198
- Combination index (CI) (OVCAR-5 cells [1]; [8]): 0.0673
- Combination index (CI) (OVCAR-5 cells [1]; [9]): 0.03276
- Combination index (CI) (OVCAR-5 cells [1]; [10]): 0.01211
- viability at 200 µM (OVCAR-5 cells [1]): ~80%
- Effect on NAD+ levels combined with FK866 (OVCAR-5 cells [2]): most effective
- NAD levels (OVCAR-5 cells [2]): ~30%

Molecule: Nc1nccnc1C(=O)O [Compound 10, 3-aminopyrazine-2-carboxylic acid]
- inhibition at 500 µM (human recombinant NAPRT [4]): 6%

Molecule: O=C(O)c1ccccc1O [Compound 17, salicylic acid]
- IC50 (human recombinant NAPRT [3]): 351 ± 19 µM
- Ki (human recombinant NAPRT [3]): 169 ± 15 µM
- inhibition at 500 µM (human recombinant NAPRT [3]; [11]): 58%
- Inhibition Mechanism (human recombinant NAPRT [3]; [12]): noncompetitive inhibition; also recorded: non- competitive
- Effect on cell viability in the absence of FK866 (OVCAR-5 cells [1]; 200 µM compound, 72 h, no FK866): toxicity

Molecule: O=C(O)c1ccccc1 [Compound 19, benzoic acid]
- inhibition at 500 µM (human recombinant NAPRT [3]): 8%

Molecule: Nc1ccccc1C(=O)O [Compound 20, anthranilic acid]
- inhibition at 500 µM (human recombinant NAPRT [3]): 5%

Molecule: O=C(O)c1cccc(N2CCOCC2)c1 [Compound 24, 3-morpholinobenzoic acid]
- inhibition at 500 µM (human recombinant NAPRT [4]): 0%

Molecule: O=C(O)c1ccncc1 [Compound 27, isonicotinic acid]
- inhibition at 500 µM (human recombinant NAPRT [3]; [11]): 0%

Molecule: O=C(O)c1cncnc1 [Compound 28, 5-pyrimidine carboxylic acid]
- inhibition at 500 µM (human recombinant NAPRT [3]; [11]): ≤ 20%

Molecule: c1cnc(N2CCNCC2)nc1 [Compound 33, 2-(1-piperazinyl)pyrimidine]
- inhibition at 500 µM (human recombinant NAPRT [3]; [11]): 0%
- Inhibitory activity against NAPRT (in words) (human recombinant NAPRT [3]): very poor inhibitors

B1: human recombinant NAPRT (Homo sapiens) (protein)
chain: MAAEQDPEARAAARPLLTDLYQATMALGYWRAGRARDAAEFELFFRRCPFGGAFALAAGLRDCVRFLRAFRLRDADVQFLASVLPPDTDPAFFEHLRALDCSEVTVRALPEGSLAFPGVPLLQVSGPLLVVQLLETPLLCLVSYASLVATNAARLRLIAGPEKRLLEMGLRRAQGPDGGLTASTYSYLGGFDSSSNVLAGQLRGVPVAGTLAHSFVTSFSGSEVPPDPMLAPAAGEGPGVDLAAKAQVWLEQVCAHLGLGVQEPHPGERAAFVAYALAFPRAFQGLLDTYSVWRSGLPNFLAVALALGELGYRAVGVRLDSGDLLQQAQEIRKVFRAAAAQFQVPWLESVLIVVSNNIDEEALARLAQEGSEVNVIGIGTSVVTCPQQPSLGGVYKLVAVGGQPRMKLTEDPEKQTLPGSKAAFRLLGSDGSPLMDMLQLAEEPVPQAGQELRVWPPGAQEPCTVRPAQVEPLLRLCLQQGQLCEPLPSLAESRALAQLSLSRLSPEHRRLRSPAQYQVVLSERLQALVNSLCAGQSP
- Km [6]: 15 ± 6 µM
